Data published in patent US20230364074A1, “Compounds and Compositions for Disrupting Programmed Ribosomal Frameshifting” (YALE UNIVERSITY, priority 2020, published 2023).
Where two headings read alike, the source gives them in different places.

How the values were obtained:
SARS-CoV-2 FSE (−1 PRF) = experiment: cells; format: cell-based
HEK293T cells = experiment: Cell viability in the high-throughput screen (cell nuclei numbers)
Description: HEK293T cells were plated in 384 well plates at the density of 5,000 cells/well. Cells were treated by 10 μM candidate compounds 30 min before transfection of 15 ng mCherry-FSE-GFP(−1) plasmid DNA in each well. 24 hours after transfection, cell nuclei were stained with Hoechst dye. Cell nuclei, mCherry, and GFP signals were imaged using an automated fluorescent microscope with a 10x objective, and the acquired images were quantified using the CellProfiler image analysis package. Cell nuclei numbers were quantified as the metric for cell viability. Mean GFP and RFP intensity values were measured in all transfected cells, and GFP/mCherry mean intensity ratios were quantified as the metric for PRF efficiency. The mCherry-GFP fusion plasmid and the mCherry-FSE-GFP(0) plasmid were used as positive and negative controls for elevated and reduced GFP/mCherry ratios, respectively.

−1 PRF of SARS-CoV-2 = experiment: microbe, parasite or virus in culture; format: cell-based
[1] = Severe acute respiratory syndrome coronavirus 2, HEK-293T, 24 h; read-out: PERCENT EFFECT 2 (Decreased GFP/Red ratio)
[2] = Severe acute respiratory syndrome coronavirus 2, HEK-293T, 24 h; read-out: PERCENT EFFECT (Increased GFP/Red Ratio)
[3] = 10 μM compound, cell nuclei numbers

Compound	inhibition at 10 µM (SARS-CoV-2 FSE (−1 PRF); [1]) [%]	activation at 10 µM (SARS-CoV-2 FSE (−1 PRF); [2]) [%]	PERCENT VIABILITY (HEK293T cells; [3]) [%]	also measured
CCCC1(CCC)CCC2(CCN(CCCN(CC)CC)C2)CC1 [atiprimod, 3-(8,8-dipropyl-3-azaspiro[4.5]decan-3-yl)-N,N-diethylpropan-1-amine]	-40.9	21.2	7.2	–
O=P(O)(O)OC1[C@H](OP(=O)(O)O)[C@H](O)C(O)[C@H](O)[C@H]1OP(=O)(O)O (stereo partly drawn) [atrinositol, [(2R,3S,5R,6R)-3,4,5-trihydroxy-2,6-diphosphonooxycyclohexyl] dihydrogen phosphate]	-61.7	30.2	–	PERCENT VIABILITY (HEK293T cells; human): 199.8%
Cc1cc(C)c(Nc2ccnc(Nc3ccc(C#N)cc3)n2)c(C)c1 [dapivirine, 4-[[4-[(2,4,6-trimethylphenyl)amino]pyrimidin-2-yl]amino]benzonitrile]	-51.1	24	36.7	–
C[C@H]1O[C@@H](O[C@H]2[C@@H](O)C[C@H](O[C@H]3[C@@H](O)C[C@H](O[C@H]4CC[C@@]5(C)[C@H](CC[C@@H]6[C@@H]5CC[C@]5(C)[C@@H](C7=CC(=O)OC7)CC[C@]65O)C4)O[C@@H]3C)O[C@@H]2C)C[C@H](O)[C@@H]1O [digitoxin]	-34.2	16.8	6.9	–
CCN1/C(=C/C=C/C=C/c2sc3ccccc3[n+]2CC)Sc2ccccc21.[I-] [dithiazanine, 3-ethyl-2-[(1Z,3E,5E)-5-(3-ethyl-1,3-benzothiazol-2-ylidene)penta-1,3-dienyl]-1,3-benzothiazol-3-ium iodide]	79.7	-39	48.28	–
CCOC(=O)Nc1ccc(NCc2ccc(F)cc2)nc1N [flupirtine, ethyl N-(2-amino-6-{[(4-fluorophenyl)methyl]amino}pyridin-3-yl)carbamate]	-27.2	14.4	110.5	–
O=C(Nc1ccc(Cl)cc1)Nc1ccc(Cl)c(C(F)(F)F)c1 [halocarban, 3-(4-chlorophenyl)-1-[4-chloro-3-(trifluoromethyl)phenyl]urea]	-48.8	23.9	54.7	–
CC(=O)[C@]1(O)Cc2c(O)c3c(c(O)c2[C@@H](O[C@H]2C[C@H](N)[C@H](O)[C@H](C)O2)C1)C(=O)c1ccccc1C3=O [idarubicin]	76.8	-40.6	10.75	–
O=[N+]([O-])c1cc(Cl)cc(-c2cc(Cl)cc([N+](=O)[O-])c2O)c1O [niclofolan, 4-chloro-2-(5-chloro-2-hydroxy-3-nitrophenyl)-6-nitrophenol]	-36.6	17.2	68.0	–
NCCCNc1ccc2c3c(nn2CCNCCO)-c2c(O)ccc(O)c2C(=O)c13 [piroxantrone, 5-(AMINO-PR-AMINO)-DI-HO-2-(2-(HO-ET-AMINO)-ET)-2H-DIBENZO(CD,G)INDAZOL-ONE]	88.7	-43.5	91.45	–
COc1ccc(C[C@H](N)C(=O)NC2[C@@H](O)[C@H](n3cnc4c(N(C)C)ncnc43)O[C@@H]2CO)cc1 (stereo partly drawn) [puromycin, (2S)-2-amino-N-[(2S,4R,5R)-5-(6-dimethylaminopurin-9-yl)-4-hydroxy-2-(hydroxymethyl)oxolan-3-yl]-3-(4-methoxyphenyl)propanamide]	–	18.9	26.1	PERCENT VIABILITY (HEK293T cells; 10 μM compound, cell nuclei numbers, listed as Puromycin): 49.7%
Cc1cc2nc3c(=O)[nH]c(=O)nc-3n(CC(O)C(O)C(O)CO)c2cc1C (centres unmarked) [riboflavin, 7,8-dimethyl-10-(2,3,4,5-tetrahydroxypentyl)benzo[g]pteridine-2,4-dione]	-40	19.6	187.1	–
O=C(Nc1cccc(C(F)(F)F)c1)c1ccccc1O [salfluverine, 2-hydroxy-N-[3-(trifluoromethyl)phenyl]benzamide]	-40.2	18.9	133.5	–
Clc1ccc(C(Cn2ccnc2)OCc2ccsc2Cl)c(Cl)c1 (centres unmarked) [tioconazole]	–	–	–	inhibition at 10 µM (SARS-CoV-2 FSE (−1 PRF); Severe acute respiratory syndrome coronavirus 2, HEK-293T, 24 h, read-out: PERCENT EFFECT 2 (Decreased GFP/Red ratio)): -51.1%; activation at 10 µM (SARS-CoV-2 FSE (−1 PRF); Severe acute respiratory syndrome coronavirus 2, HEK-293T, 24 h, read-out: PERCENT EFFECT (Increased GFP/Red Ratio)): 26.7%; PERCENT VIABILITY (HEK293T cells; human): 99.7%
N[C@@H]1[C@H]2CN(c3nc4c(cc3F)c(=O)c(C(=O)O)cn4-c3ccc(F)cc3F)C[C@@H]12 [trovafloxacin]	–	–	–	activity on SARS-CoV-2 PRF efficiency, compared with merafloxacin (−1 PRF of SARS-CoV-2; final concentration of 20 μM (FIGS. 3A and 3B)): less active
O=C(CCCCCCC(=O)Nc1ccccc1)NO [vorinostat]	-28.8	15.2	20.6	–
GRAMICIDIN [GRAMICIDIN (gramicidin A shown)]	–	–	3.3	PERCENT EFFECT 2 (Decreased GFP/Red ratio) (SARS-CoV-2 FSE (−1 PRF)): −29.0%; PERCENT EFFECT (Increased GFP/Red Ratio) (SARS-CoV-2 FSE (−1 PRF)): 15.0%; PERCENT EFFECT 2 (Decreased GFP/Red ratio) (SARS-CoV-2 FSE (−1 PRF); listed as gramicidin): −38.6%; PERCENT EFFECT (Increased GFP/Red Ratio) (SARS-CoV-2 FSE (−1 PRF); listed as gramicidin): 18.9%; PERCENT VIABILITY (HEK293T cells; 10 μM compound, cell nuclei numbers, listed as gramicidin): 10.1%
IVERMECTIN	–	–	223.0	validated effect on −1 PRF in dual luciferase-based PRF reporter assay (−1 PRF of SARS-CoV-2; repurchased screen candidates): enhancer; PERCENT EFFECT 2 (Decreased GFP/Red ratio) (SARS-CoV-2 FSE (−1 PRF)): −36.2%; PERCENT EFFECT (Increased GFP/Red Ratio) (SARS-CoV-2 FSE (−1 PRF)): 15.8%
